IC50 data for 1 substance are collected here from article PMC12019475 (ACS Omega, 2025).

In general, IC50 refers to the point on the concentration scale where inhibition reaches its midpoint.

The subject of the assay is CcrM from Moraxella lincolnii. The assay is described as follows: radiochemical DNA methylation assay. The class given is biochemical, Lwoffella lincolnii. Conditions: read-out: M. lincolnii IC50; DNA and AdoMet as substrates.

For NSC317003 [NSC 2], the IC50 worked out at 45.8 ± 3.2 µM.
